Test results from ChEMBL document CHEMBL4715834, “Design, synthesis and bio-evaluation of novel 2-aryl-4-(3,4,5-trimethoxy-benzoyl)-5-substituted-1,2,3-triazoles as the tubulin polymerization inhibitors” (Eur J Med Chem, 2020).
Converted amounts (≈) assume the structure as drawn. The source made the active and inactive calls. The calls are words filed in the database; no cut-off is given here.

Assays:
A549 = assay: Antiproliferative activity against human A549 cells assessed as inhibition of cell growth measured after 72 hrs by MTT assay; assay type: functional, cell-based; conditions: A549, 72 h
SGC-7901 [1] = assay: Antiproliferative activity against human SGC-7901 cells assessed as inhibition of cell growth measured after 72 hrs by MTT assay; assay type: functional, cell-based; conditions: SGC-7901, 72 h
HeLa = assay: Antiproliferative activity against human HeLa cells assessed as inhibition of cell growth measured after 72 hrs by MTT assay; assay type: functional, cell-based
[2] = Solubility of compound in water at pH 7.4 by UV-HPLC method; assay type: physicochemical
SGC-7901 [3] = assay: Cell cycle arrest in human SGC-7901 cells assessed as increase in sub-G1 cell population at 0.023 uM after 72 hrs by propidium iodide staining based flow cytometry; assay type: functional
SGC-7901 [4] = assay: Cell cycle arrest in human SGC-7901 cells assessed as decrease in G1 cell population at 0.023 uM by propidium iodide staining based flow cytometry; assay type: functional; conditions: time 12-72 hrs, TDE = time-dependent effect
SGC-7901 [5] = assay: Cell cycle arrest in human SGC-7901 cells assessed as increase in G2/M cell population at 0.023 uM by propidium iodide staining based flow cytometry; assay type: functional; conditions: time 12-72 hrs, TDE = time-dependent effect
Sus scrofa = species on record: Sus scrofa; assay: (§1) Inhibition of porcine tubulin polymerization measured for 60 mins by fluorescence assay
[6] = as §1; set-up: species or system Sus scrofa
SGC-7901 [7] = assay: Induction of microtubule disruption in human SGC-7901 cells assessed as change in shape of nucleus at 0.084 uM measured after 24 hrs by DAPI staining based immunofluorescence assay; assay type: cell-based
SGC-7901 [8] = assay: Cell cycle arrest in human SGC-7901 cells assessed as accumulation at G2/M cell population at 0.084 uM measured after 12 hrs by propidium iodide staining based flow cytometry (reference value: 14.5%); assay type: functional
SGC-7901 [9] = assay: Induction of microtubule disruption in human SGC-7901 cells assessed as appearance of disorganised microtubule at 0.084 uM measured after 24 hrs by DAPI staining based immunofluorescence assay; assay type: cell-based
SGC-7901 [10] = assay: Cell cycle arrest in human SGC-7901 cells assessed as increase in sub-G1 cell population at 0.084 uM after 72 hrs by propidium iodide staining based flow cytometry; assay type: functional
SGC-7901 [11] = assay: Induction of microtubule disruption in human SGC-7901 cells assessed as shrinkage of microtubule at 0.084 uM measured after 24 hrs by DAPI staining based immunofluorescence assay; assay type: cell-based
SGC-7901 [12] = assay: Cell cycle arrest in human SGC-7901 cells assessed as decrease in G1 cell population at 0.084 uM by propidium iodide staining based flow cytometry; assay type: functional; conditions: time 12-72 hrs, TDE = time-dependent effect
SGC-7901 [13] = assay: Cell cycle arrest in human SGC-7901 cells assessed as increase in G2/M cell population at 0.084 uM by propidium iodide staining based flow cytometry; assay type: functional; conditions: time 12-72 hrs, TDE = time-dependent effect

SMILES | IC50 (A549) | IC50 (SGC-7901 [1]) | IC50 (HeLa) | further results
COc1cc(C(=O)c2nn(-c3ccc(Br)cc3)nc2N2CCN(C(C)=O)CC2)cc(OC)c1OC | 9060 nM | 861 nM | > 30000 nM | –
COc1cc(C(=O)c2cnn(-c3ccccc3)n2)cc(OC)c1OC | 7100 nM | 870 nM | 11400 nM | solubility [2]: < 0.5 µg/mL
COc1cc(C(=O)c2nn(-c3ccc(C)c(C)c3)nc2N2CCN(C(C)=O)CC2)cc(OC)c1OC | 2610 nM | 4830 nM | 3920 nM | –
COc1cc(C(=O)c2nn(-c3ccccc3)nc2N2CCCCC2)cc(OC)c1OC | 6450 nM | 3720 nM | 3620 nM | –
COc1ccc(/C=C\c2cc(OC)c(OC)c(OC)c2)cc1O [COMBRETASTATIN A4] | – | – | – | solubility [2]: 0.1 µg/mL (≈ 0.316 µM)
COc1cc(C(=O)c2nn(-c3ccccc3C)nc2N2CCN(C(C)=O)CC2)cc(OC)c1OC | 8350 nM | 2380 nM | 2690 nM | –
COc1cc(C(=O)c2nn(-c3ccccc3)nc2N2CCN(C(=O)OC(C)(C)C)CC2)cc(OC)c1OC | > 30000 nM | 11300 nM | > 30000 nM | –
COc1cc(C(=O)c2nn(-c3cccc(C)c3)nc2N2CCN(C(C)=O)CC2)cc(OC)c1OC | > 30000 nM | > 30000 nM | > 30000 nM | –
COc1cc(C(=O)c2nn(-c3cccc(F)c3)nc2N2CCN(C(C)=O)CC2)cc(OC)c1OC | > 30000 nM | 1690 nM | 6200 nM | –
COc1cc(C(=O)c2nn(-c3cc(C)ccc3C)nc2N2CCN(C(C)=O)CC2)cc(OC)c1OC | > 30000 nM | > 30000 nM | > 30000 nM | –
COc1cc(C(=O)c2nn(-c3ccccc3F)nc2N2CCN(C(C)=O)CC2)cc(OC)c1OC | 4650 nM | 171 nM | 513 nM | –
COc1cc(C(=O)c2nn(-c3ccccc3)nc2N2CCN(C(C)C)CC2)cc(OC)c1OC | 7300 nM | 2680 nM | 6420 nM | –
COc1cc(C(=O)c2nn(-c3ccccc3)nc2N2CCNCC2)cc(OC)c1OC | 4310 nM | 1240 nM | 342 nM | solubility [2]: 2.2 µg/mL (≈ 5.2 µM)
COc1ccc(-n2nc(C(=O)c3cc(OC)c(OC)c(OC)c3)c(N3CCN(C(C)=O)CC3)n2)cc1[N+](=O)[O-] | > 30000 nM | > 30000 nM | > 30000 nM | –
COc1cc(C(=O)c2nn(-c3ccc(F)cc3)nc2N2CCN(C(C)=O)CC2)cc(OC)c1OC | > 30000 nM | 344 nM | 3480 nM | –

Continued by falling IC50 (A549), values first:

IC50 (A549) | IC50 (SGC-7901 [1]) | IC50 (HeLa) | SMILES | further results
1100 nM | 1150 nM | 208 nM | COc1ccc(-n2nc(C(=O)c3cc(OC)c(OC)c(OC)c3)c(N3CCN(C(C)=O)CC3)n2)cc1 | –
764 nM | 426 nM | 298 nM | COc1cc(C(=O)c2nn(-c3ccc(C)cc3)nc2N2CCN(C(C)=O)CC2)cc(OC)c1OC | –
684 nM | 417 nM | 212 nM | COc1cc(C(=O)c2nn(-c3ccc([N+](=O)[O-])cc3)nc2N2CCN(C(C)=O)CC2)cc(OC)c1OC | –
648 nM | 550 nM | 1360 nM | COc1ccc(-n2nc(C(=O)c3cc(OC)c(OC)c(OC)c3)c(N3CCN(C(C)=O)CC3)n2)cc1N | –
628 nM | 406 nM | 1080 nM | COc1cc(C(=O)c2nn(-c3ccc(Cl)cc3)nc2N2CCN(C(C)=O)CC2)cc(OC)c1OC | –
622 nM | 6580 nM | 135 nM | COc1cc(C(=O)c2nn(-c3ccccc3)nc2N2CCN(C)CC2)cc(OC)c1OC | –
488 nM | 5860 nM | 891 nM | COc1cc(C(=O)c2nn(-c3ccccc3)nc2N2CCOCC2)cc(OC)c1OC | –
133 nM | 84 nM | 221 nM | COc1cc(C(=O)c2nn(-c3ccccc3)nc2N2CCN(C(C)=O)CC2)cc(OC)c1OC | inhibition (Sus scrofa): Dose-dependent effect; IC50 [6]: 28300 nM; Activity (SGC-7901 [7]): Active; Activity (SGC-7901 [8]): 53.9%; Activity (SGC-7901 [9]): Active; Activity (SGC-7901 [10]): Active; solubility [2]: 2.7 µg/mL (≈ 5.8 µM); Activity (SGC-7901 [11]): Active; Activity (SGC-7901 [12]): Tde; Activity (SGC-7901 [13]): Tde
34 nM | – | 37 nM | COc1cc(C(=O)c2csc(-c3ccccc3)n2)cc(OC)c1OC | solubility [2]: < 0.5 µg/mL; Activity (SGC-7901 [3]): Active; Activity (SGC-7901 [4]): Tde; Activity (SGC-7901 [5]): Tde
